# Tests used:
# [1] = tested on: gastrocnemius muscle; experiment: Measurement of muscle surface pO2 (multiwire-surface electrode, one femoral artery ligated to induce ischaemia); format: in vivo, Cats; settings: 12.5 mg/kg i.d., suspension in Methocel, n = 4; for Cs (significance coefficient = number of measuring sites with significant pO2 increase per total number of measuring sites) / ΔpO2 (mean pO2 increase in experiments with significant pO2 increase): anaesthetized cats; for E (efficiency-index = Cs x ΔpO2): control values E between 0.1 and 1.2 Torr
# Procedure: (§1) Cats of either sex were anaesthetized by i.p. injection of urethane/chloralosc (120/60 mg/kg). The intraduodenal (i.d.) administration of compounds was conducted by means of a plastic.catheter which was inserted into the duodenum following midline incision at the abdominal cavity.
# Measurement of muscle surface p02. The skin above the measuring site (3-4 mm in diameter) was removed and one multiwire-surface electrode (Eschweiler, Kiel) was placed on the gastrocnemius muscle of each hindlimb. The femoral artery in one hindlimb was ligated in order to induce ischaemia. Muscle temperature was controlled by means of a thermocouple (Ellab, Copenhagen). The electrode current was measured every 6 to 8 s and collected for periods of 4 min (Hewlett-Packard programmable data logger system 3051 A). After each period, mean value and standard deviation was calculated.
# [2] = Observation of toxic effects at the test dosages; format: in vivo; settings: at the test dosage 12.5 mg/kg i.d., cats
# Procedure: as §1
structure (smiles),measurement,setting,value
"Cn1cnc2c1c(=O)n(CCCCC1(C)OCCO1)c(=O)n2C [2-Methyl-2-(theobrominyl-butyl-4)-1,3-dioxalane]",Cs (significance coefficient = number of measuring sites with significant pO2 increase per total number of measuring sites),[1]; hypoxic tissue,1
same,ΔpO2 (mean pO2 increase in experiments with significant pO2 increase),[1]; hypoxic tissue,3.7 Torr
same,E (efficiency-index = Cs x ΔpO2),[1]; hypoxic tissue,3.7 Torr
same,Cs (significance coefficient = number of measuring sites with significant pO2 increase per total number of measuring sites),[1]; normoxic tissue,1
same,ΔpO2 (mean pO2 increase in experiments with significant pO2 increase),[1]; normoxic tissue,4.8 Torr
same,E (efficiency-index = Cs x ΔpO2),[1]; normoxic tissue,4.8 Torr
same,toxic effects,[2],No toxic effects were observed
